The values that follow come from patent US10647713B2 (Nimbus Lakshmi, Inc., priority 2016, dated 2020).

Bounds are passed on as bounds.

One may read the Kd as the concentration at which binding is half-saturated. Read a low Kd as higher affinity.

This test deals with human TYK2 (JH2domain-pseudokinase) (Homo sapiens (Human), UniProt P29597). The test is described as follows: TYK2 JH2 Domain Binding Assay (KINOMEscan, DiscoveRx). To be noted: 11-point dilution, duplicate. A digest of the protocol: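 Kd from duplicate 11-point 3-fold dilutions starting at 30,000 nM, fitted by Hill equation with slope fixed at −1. Compounds (final 0.9% DMSO) displace DNA-tagged HEK293-expressed TYK2 JH2 fusion (<0.1 nM) from ligand-coated beads over 1 h at room temperature; eluted kinase read by qPCR.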
Chain of human TYK2 (JH2domain-pseudokinase) (P29597 556-888): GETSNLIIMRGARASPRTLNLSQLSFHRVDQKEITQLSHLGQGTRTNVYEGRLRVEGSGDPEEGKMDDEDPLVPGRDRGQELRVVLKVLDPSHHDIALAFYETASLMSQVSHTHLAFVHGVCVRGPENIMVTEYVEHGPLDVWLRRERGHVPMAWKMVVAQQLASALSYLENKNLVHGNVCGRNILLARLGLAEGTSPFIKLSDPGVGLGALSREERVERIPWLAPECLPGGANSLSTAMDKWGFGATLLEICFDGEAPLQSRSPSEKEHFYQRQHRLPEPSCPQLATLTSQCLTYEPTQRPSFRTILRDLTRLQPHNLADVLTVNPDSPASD
As for `COCc1ccc(Nc2cc(Nc3ccc(F)cc3S(C)(=O)=O)c3nc(C)[nH]c3n2)nn1` [I-636], the Kd was in the range of 0.1 to 0.5 nM.

With `CN=[S@@](C)(=O)c1cc(-c2cnn(C)c2C)ccc1Nc1cc(NC(=O)C2CC2)nc2[nH]c(C(F)F)nc12` [I-637], the Kd is < 0.1 nM.

`CN=[S@](C)(=O)c1cc(-c2cnn(C)c2C)ccc1Nc1cc(NC(=O)C2CC2)nc2[nH]c(C(F)F)nc12` [I-638] yielded a dissociation constant (Kd) of 0.1 to 0.5 nM.

As to `Cc1nc2c(Nc3ccc(F)cc3S(C)(=O)=O)cc(Nc3cc4c(nn3)CCC4)nc2[nH]1` [I-639], the Kd was < 0.1 nM.

In the case of `CN=S(C)(=O)c1cc(-c2ccn(C)n2)ccc1Nc1cc(NC(=O)C2CC2)nc2[nH]c(C)nc12` (stereo not drawn) [I-640], the Kd was 0.1 to 0.5 nM.

Consider `CN=S(C)(=O)c1cc(-c2nn(C)cc2C)ccc1Nc1cc(NC(=O)C2CC2)nc2[nH]c(C(F)F)nc12` (stereo not drawn) [I-641], for which the Kd is < 0.1 nM.

Consider `Cc1cc(Nc2cc(Nc3ccc(C4CCC(C)(C)CO4)cc3S(C)(=O)=O)c3nc(C)[nH]c3n2)nc(C)n1` (stereo not drawn) [I-642], for which the Kd was < 0.1 nM.

Take `CS(=O)(=O)c1cc(F)ccc1Nc1cc(Nc2ccc3c(n2)CCOC3)nc2[nH]c(C(F)F)nc12` [I-643]: the Kd was in the range of 0.1 to 0.5 nM.

Take `Cc1nc2c(Nc3ccc(F)cc3S(C)(=O)=O)cc(Nc3ccc4c(n3)CCOC4)nc2[nH]1` [I-644]: the Kd fell in the range of 0.1 to 0.5 nM.

Compound `COc1c(Nc2cc(Nc3ccc4c(n3)CCOC4)nc3[nH]c(C(F)F)nc23)cccc1-c1ncnn1C` [I-645] gave a Kd of 1 to 10 nM.

The compound `COc1c(Nc2cc(Nc3ccc4c(n3)CCOC4)nc3[nH]c(C(F)F)nc23)cccc1-c1cnn(C)n1` [I-646] yielded a Kd of 0.5 to 1 nM.

As for `COc1c(Nc2cc(Nc3cc4c(nn3)CCC4)nc3[nH]c(C(F)F)nc23)cccc1-c1ncnn1C` [I-647], the Kd is 0.5 to 1 nM.

With `COc1c(Nc2cc(Nc3cc4c(nn3)CCC4)nc3[nH]c(C(F)F)nc23)cccc1-c1cnn(C)n1` [I-648], the Kd fell in the range of 0.1 to 0.5 nM.

`CN=[S@@](C)(=O)c1cc(-c2nc(COC)c(C)s2)ccc1Nc1cc(NC(=O)C2CC2)nc2[nH]c(C(F)F)nc12` [I-649] showed a Kd of 1 to 10 nM.

In turn, `CN=[S@](C)(=O)c1cc(-c2nc(COC)c(C)s2)ccc1Nc1cc(NC(=O)C2CC2)nc2[nH]c(C(F)F)nc12` [I-650] had a Kd of 0.1 to 0.5 nM.
